The values below come from PMC11767582, “Synthesis and Biological Evaluation of New cis-Restricted Triazole Analogues of Combretastatin A-4” (Molecules, 2025).

Read-outs that look alike come from different tables or passages of the source. A value given as a limit tells only on which side of the number the result lay.

Data set [1] has as its system human colon cancer cell line HT-29. As to the kind of experiment: MTT cytotoxicity (growth inhibition) assay, HT-29. It is filed as cell-based. As for the experimental part:
(§1) • Cell culture. Cell culture media were purchased from Gibco (Grand Island, NY, USA). Fetal bovine serum (FBS) was a product of Harlan-Seralab (Belton, UK). Supplements and other chemicals not listed in this section were obtained from Sigma Chemical Co. (St. Louis, MO, USA). Plastics for cell culture were supplied by Thermo Scientific BioLite. All tested compounds were dissolved in DMSO at a concentration of 20 mM and stored at –20 °C until use. HT-29, A-549, and HEK-293 cell lines were maintained in a Dulbecco’s modified Eagle’s medium (DMEM) containing glucose (1 g/L), glutamine (2 mM), penicillin (50 μg/mL), streptomycin (50 μg/mL), and amphotericin B (1.25 μg/mL), supplemented with 10% FBS. • Cytotoxicity assays. 5 × 10^3 cells per well were incubated in 96-well plates with serial dilutions of the tested compounds in a total volume of 100 μL of their growth media. 3-(4,5-dimethylthiazol-2-yl)-2,5-diphenyltetrazolium bromide (MTT; Sigma Chemical Co.) dye reduction assay in 96-well microplates was used. Then, 10 μL of MTT (5 mg/mL in phosphate-buffered saline, PBS) was added to each well after 2 days of incubation (37 °C, 5% CO2 in a humid atmosphere). The plate was incubated for a further 3 h (37 °C). After that, the supernatant was discarded and 100 μL of DMSO were added in order to dissolve formazan crystals. The absorbance was read at 550 nm by spectro-photometry. For all concentrations of compound, cell viability was expressed as the percentage of the ratio between the mean absorbance of treated cells and the mean absorbance of untreated cells. Three independent experiments were performed, and the IC50 values (i.e., concentration half inhibiting cell proliferation) were graphically determined using GraphPad Prism 9 software.

For data set [2], the system named is human lung cancer cell line A-549. As to the kind of experiment: MTT cytotoxicity (growth inhibition) assay, A-549. It is filed as cell-based. The method, then: as §1
Data set [3] can be described thus: MTT cytotoxicity (growth inhibition) assay, HEK-293 (non-tumor). The class given is cell-based. The following applies: human, HEK-293 embryonic kidney cells (non-tumor). The method, then:
as §1

For data set [4], the system named is K562 leukemia cancer cell line. Further details: method as in PMID 18396050. The note with it: ref [15], cited from earlier work.
The test system of data set [5] is human colon cancer cell line HT-29. The arrangement: method as in PMID 32033084. The note with it: reference compound; ref [30]; read-out: Cytotoxicity IC50 HT-29; cited from earlier work.
Data set [6] has as its system human lung cancer cell line A-549. Further details: method as in PMID 32033084. The note with it: reference compound; ref [30]; read-out: Cytotoxicity IC50 A-549; cited from earlier work.
Data set [7] concerns human embryonic kidney cell line HEK-293. The arrangement: method as in PMID 32033084. The following applies: reference compound; ref [30]; read-out: Cytotoxicity IC50 HEK-293; cited from earlier work.
In data set [8] the test system is HT-29. The arrangement: method as in PMID 18396050, PMID 18681482, PMID 22137934, PMID 22304851, PMID 24222525. The following applies: known triazole analogues of CA-4; ref [15],[16],[17],[18],[19],[20]; read-out: IC50 HT-29 (Figure 2); cited from earlier work.
The mark [9] stands for this setting: HT-29, 48 h, read-out: Cytotoxicity IC50 HT-29.
[10] abbreviates: A549, 48 h, read-out: Cytotoxicity IC50 A-549.
Where [11] appears, read: known triazole analogues of CA-4, read-out: IC50 K562 (Figure 2).

What is called IC50 is the concentration that inhibits the measured activity by half. In the case of `COc1cc(-n2nncc2-c2ccccc2)cc(OC)c1OC` [3a, 5-phenyl-1-(3,4,5-trimethoxyphenyl)-1H-1,2,3-triazole], the IC50 was over 100 µM in data set [1] (setting [9]) and over 200 µM in data set [2] (setting [10]). Besides, in data set [3], the IC50 at 48 h is over 200 µM.
Regarding `COc1cc(-n2nncc2-c2ccccc2Br)cc(OC)c1OC` [3b, 5-(2-bromophenyl)-1-(3,4,5-trimethoxyphenyl)-1H-1,2,3-triazole], the IC50 in data set [1] (setting [9]) and in data set [2] (setting [10]) was over 100 µM each time. The molecule also returned a concentration for half-maximal inhibition (IC50) at 48 h in data set [3] of over 200 µM.
In the case of `COc1cc(-n2nncc2-c2ccccc2[N+](=O)[O-])cc(OC)c1OC` [3c, 5-(2-nitrophenyl)-1-(3,4,5-trimethoxyphenyl)-1H-1,2,3-triazole], the IC50 in data set [1] (setting [9]) is over 100 µM; in data set [2] (setting [10]), over 200 µM. In data set [3], this molecule returned an IC50 at 48 h of over 200 µM.
In the case of `COc1cc(-n2nncc2-c2ccc(C)cc2)cc(OC)c1OC` [3d, 5-(p-tolyl)-1-(3,4,5-trimethoxyphenyl)-1H-1,2,3-triazole], the IC50 in data set [1] (setting [9]) was over 100 µM; in data set [2] (setting [10]), over 200 µM. The molecule also displayed an IC50 at 48 h in data set [3] of over 200 µM.
As for `COc1cc(-n2nncc2-c2ccc(C(F)(F)F)cc2)cc(OC)c1OC` [3e, 5-(4-(trifluoromethyl)phenyl)-1-(3,4,5-trimethoxyphenyl)-1H-1,2,3-triazole], the values for the IC50 in data set [1] (setting [9]) and in data set [2] (setting [10]) were 54 ± 3 µM and over 100 µM, respectively. The molecule further returned a concentration for half-maximal inhibition (IC50) at 48 h in data set [3] of over 200 µM.
For `COc1cc(-n2nncc2-c2ccc(F)cc2)cc(OC)c1OC` [3f, 5-(4-fluorophenyl)-1-(3,4,5-trimethoxyphenyl)-1H-1,2,3-triazole], in that order: over 200 µM, over 200 µM and over 200 µM.
For `COc1cc(-n2nncc2-c2ccc(Cl)cc2)cc(OC)c1OC` [3g, 5-(4-chlorophenyl)-1-(3,4,5-trimethoxyphenyl)-1H-1,2,3-triazole], in that order: over 100 µM, over 100 µM and over 200 µM.
Take `COc1cc(-n2nncc2-c2ccc(Br)cc2)cc(OC)c1OC` [3h, 5-(4-bromophenyl)-1-(3,4,5-trimethoxyphenyl)-1H-1,2,3-triazole]: the IC50 in data set [1] (setting [9]) and in data set [2] (setting [10]) was over 100 µM each time. In addition, in data set [3], the 50% inhibitory concentration (IC50) at 48 h is over 200 µM.
For `COc1ccc(-c2cnnn2-c2cc(OC)c(OC)c(OC)c2)cc1` [3i, 5-(4-methoxyphenyl)-1-(3,4,5-trimethoxyphenyl)-1H-1,2,3-triazole], the IC50 in data set [1] (setting [9]) is 0.02 ± 0.009 µM; in data set [2] (setting [10]) it was 0.022 ± 0.007 µM; in data set [4] (previously described, read-out: IC50 K562 leukemia cancer cell line), 0.027 µM. In data set [3], this molecule came in with an IC50 at 48 h of 35 ± 9 µM.
With `CCOc1ccc(-c2cnnn2-c2cc(OC)c(OC)c(OC)c2)cc1` [3j, 5-(4-ethoxyphenyl)-1-(3,4,5-trimethoxyphenyl)-1H-1,2,3-triazole], the IC50 in data set [1] (setting [9]) came to 0.0021 ± 0.0009 µM; in data set [1] (HT-29, 48 h incubation, rounded value, read-out: IC50 HT-29) it was 0.002 µM; in data set [2] (setting [10]), 5.8 ± 0.8 µM. The IC50 at 48 h in data set [3] is 19 ± 4 µM.
`COc1ccc(-c2cnnn2-c2cc(OC)c(OC)c(OC)c2)c(Br)c1` [3k, 5-(2-bromo-4-methoxyphenyl)-1-(3,4,5-trimethoxyphenyl)-1H-1,2,3-triazole]: the results for the IC50 in data set [1] (setting [9]) and in data set [2] (setting [10]) were 56 ± 4 µM and 33 ± 2 µM, respectively. This molecule yielded an IC50 at 48 h in data set [3] of over 100 µM.
For `COc1ccc(Br)c(-c2cnnn2-c2cc(OC)c(OC)c(OC)c2)c1` [3l, 5-(2-bromo-5-methoxyphenyl)-1-(3,4,5-trimethoxyphenyl)-1H-1,2,3-triazole] the same measures were over 100 µM, over 200 µM and over 200 µM.
For `CCOc1ccc(-c2cnnn2-c2cc(OC)c(OC)c(OC)c2)cc1Br` [3m, 5-(3-bromo-4-ethoxyphenyl)-1-(3,4,5-trimethoxyphenyl)-1H-1,2,3-triazole], in that order: 20 ± 5 µM, 59 ± 1 µM and over 200 µM.
`COc1ccc(-c2cnnn2-c2cc(OC)c(OC)c(OC)c2)cc1Cl` [3n, 5-(3-chloro-4-methoxyphenyl)-1-(3,4,5-trimethoxyphenyl)-1H-1,2,3-triazole]: the IC50 came out at 0.021 ± 0.006 µM in data set [1] (setting [9]); 0.0032 ± 0.0009 µM in data set [2] (setting [10]); 0.003 µM in data set [2] (A549, 48 h incubation, rounded value, read-out: IC50 A-549). In data set [3], this molecule returned an IC50 at 48 h of 0.025 ± 0.008 µM.
In the case of `COc1ccc(-c2cnnn2-c2cc(OC)c(OC)c(OC)c2)cc1OC` [3o, 5-(3,4-dimethoxyphenyl)-1-(3,4,5-trimethoxyphenyl)-1H-1,2,3-triazoletriazole], the IC50 in data set [1] (setting [9]) is over 100 µM; in data set [2] (setting [10]) it was over 200 µM. This molecule also had an IC50 at 48 h in data set [3] of over 200 µM.
Consider `COc1cc(-n2nncc2-c2ccc(O)c(Br)c2)cc(OC)c1OC` [3p, 2-bromo-4-(1-(3,4,5-trimethoxyphenyl)-1H-1,2,3-triazol-5-yl)phenol], for which the IC50 in data set [1] (setting [9]) and in data set [2] (setting [10]) was over 200 µM in each case. The molecule further had an IC50 at 48 h in data set [3] of over 200 µM.
As for `COc1cc(-n2nncc2-c2ccc(O)c(O)c2)cc(OC)c1OC` [3q, 4-(1-(3,4,5-trimethoxyphenyl)-1H-1,2,3-triazol-5-yl)benzene-1,2-diol], the IC50 in data set [1] (setting [9]) and in data set [2] (setting [10]) was over 200 µM each time. Besides, the half-maximal inhibitory concentration (IC50) at 48 h in data set [3] was over 200 µM.
For `COc1ccc(/C=C\c2cc(OC)c(OC)c(OC)c2)cc1O` [CA-4, combretastatin A-4], the IC50 in data set [5] was 4.2 ± 0.5 µM; in data set [6] it was 0.428 ± 0.004 µM; in data set [7] it was 25 ± 3 µM.
For `COc1ccc(-c2cnnn2-c2cc(OC)c(OC)c(OC)c2)cc1Br` [R^1 = H, R^2 = Br], in data set [4] (setting [11]), the IC50 was 0.057 µM.
As for `COc1ccc(-c2cnnn2-c2cc(OC)c(OC)c(OC)c2)cc1N` [R^1 = H, R^2 = NH2], the IC50 in data set [4] (setting [11]) is 0.011 µM.
With `COc1ccc(-c2cnnn2-c2cc(OC)c(OC)c(OC)c2)cc1[N+](=O)[O-]` [R^1 = H, R^2 = NO2], in data set [4] (setting [11]), the IC50 is 0.46 µM.
As for `COc1ccc(-c2cnnn2-c2cc(OC)c(OC)c(OC)c2)c(F)c1F` [R^1 = R^2 = F], the IC50 in data set [8] was 1.9 µM.
For `COc1ccc(-c2cnnn2-c2cc(OC)c(OC)c(OC)c2)c(N)c1N` [R^1 = R^2 = NH2], in data set [8], the IC50 is 17.2 µM.
Turning to `COc1cc(-n2nncc2-c2ccc(OC)c([N+](=O)[O-])c2[N+](=O)[O-])cc(OC)c1OC` [R^1 = R^2 = NO2], in data set [8], the IC50 is 12 µM.
